What was measured:
[1] = system: MYC-CTNNB1 tumor organoids; assay: Drug toxicity (viability) assay in murine HCC tumor organoids; assay type: cell-based, mouse; conditions: screen in four tumor organoid models; 5 μM, viability after 3 days
Description: Liver tumors were minced and digested in sterile digestion media (PBS, 0.125 mg/mL collagenase from Clostridium histolyticum, 0.125 mg/mL dispase II, and 0.1 mg/mL DNaseI) for two hours at 37° C. Tumor dissociate was strained through a 70 μm strainer and washed with basal media (Advanced DMEM/F-12, 1% glutamine, 1% penicillin/streptomycin, 10 mM HEPES). Cells were counted, washed, resuspended at 50,000 cells per 50 μL Matrigel (Corning), and plated in 24 well plates. […]
For assays in organoid lines, 96 well plates were first coated with a 50:50 solution of basal media:Matrigel (35 μL/well), which polymerized for 15 minutes at 37° C. […] Viability was measured three days post drug administration with either luminescence from CellTiter-Glo or absorbance at 560 and 590 nm from resazurin. Viability data was analyzed by normalizing individual drug-treated well values to DMSO-treated wells. […]

[2] = system: wild type (WT) healthy intestinal organoids; assay: TiterGlo viability of wild type intestinal organoids; assay type: cell-based, mouse; conditions: 72 hours post treatment
Description: (§1) FIGS. 13A-13E show results pertaining to colorectal cancer. […] Data are column/gene normalized on a 0-100 scale with 0 being the lowest expression level and 100 the highest. FIG. 13D show full dose-response analysis of WNTinib's effects on the indicated organoid and tumoroid lines; viability was quantified using the TiterGlo assay after 72 hours. WT intestinal organoids are used as a control. […] Images of the intestine are shown as an example.
(§2) First, an APC deletion (A) was introduced, then a KRAS^G12D overexpression (AK) in combination with a SMAD4^KO was introduced to affect the TGFbeta pathway (AKS). Last, P53 was deleted to mimic the latest stages of metastatic disease progression (AKSP).

[3] = 14-day oral gavage tissue toxicity study; assay type: in vivo
[4] = system: receptor tyrosine kinases including KIT and VEGFR1/2; assay: NanoBRET live cell target engagement, receptor tyrosine kinases; assay type: cell-based; conditions: relative to sorafenib and regorafenib
[5] = Dose escalation studies in mice; assay type: in vivo, mouse
Description: Mice were randomized into treatment groups, and daily oral dosing began one week after mice arrived at ISMMS. Body weight was recorded daily, and animals were monitored for any signs of sickness throughout the treatment period.
To rationalize a treatment regimen for WNTinib and understand potential toxicity, in vivo dose escalation was performed in three mouse strains (FIG. 8A, FIGS. 12A-12B). Mice were dosed daily for two weeks, and body weight loss was used as a proxy for systemic toxicity.

AKSP tumoroids = assay: Full dose-response in CRC tumoroids (AKSP); assay type: cell-based, mouse; conditions: TiterGlo after 72 hours
Description: as §1
Next, a full dose-response of WNTinib in WildType normal organoids (WT), APC^KO (A), APC^KO KRAS^G12D/SMAD4^KO (AKS) and APC^KO KRAS^G12D/SMAD4^KO P53^KO (AKSP) tumoroids was performed. WNTinib has a lower IC50 in the aggressive metastatic AKSP tumoroids compared to their matched parental WT organoid line, providing thus a therapeutic window for the most advanced CRC models (FIG. 13D).

[6] = system: MYC-CTNNB1 tumor organoid allografts; assay: MYC-CTNNB1 tumor organoid allografts; assay type: in vivo, C57BL/6J mice
[7] = system: AKS: APCKO::KRASG12D::SMAD4KO tumoroids; assay: TiterGlo viability of CRC tumoroids (AKS); assay type: cell-based, mouse
Description: as §1, §2

[8] = dosed daily via oral gavage for two weeks, three mouse strains
[9] = WNTinib 20 mg/kg daily, anti-PD-1 200 μg i.p., start ~350 mm^3
[10] = tumors of advanced-stage allograft study

For `CNC(=O)c1cc(Oc2ccc(NC(=O)Nc3ccc(C(F)(F)C(F)(F)F)cc3)c(F)c2)ccn1` [WNTinib, 4-(3-fluoro-4-(3-(4-(perfluoroethyl)phenyl)ureido)phenoxy)-N-methylpicolinamide], the “activity in tumor organoid screen” value [1] was “potent and selective activity”, the “viability of WT organoids” value [2] was “without affecting that of WT organoids” and the “pathological changes in brain, heart, esophagus, large intestine” value ([3]; 60 mg/kg and 120 mg/kg oral gavage, 14 days) was “do not reveal pathological changes”. For the same compound, the “toxicity in mouse intestine” value ([3]; 14 days daily treatment, up to 4-fold the therapeutic dose) was “no toxicity was observed in mouse intestine”, the “live cell target engagement IC50 on receptor tyrosine kinases” value [4] was “retained a similar in vivo IC50” and the tolerability of exposures ([5]; dose escalation and 20 mg/kg PK (FIG. 8A, 8B)) was “well-tolerated”. For the same compound, the body weight loss [5, 8] was “weight loss did occur in a dose-dependent manner”, the signs of sickness [5, 8] was “No mice showed signs of sickness” and the “IC50 in AKSP tumoroids compared to parental WT organoid line” value (AKSP tumoroids) was “lower IC50”. For the same compound, the “survival in allograft combination study” value [6, 9] was “prolong survival”, the “tumor regression in allograft combination study” value [6, 9] was “able to induce tumor regression” and the “efficacy in allograft combination study” value ([6]; WNTinib 20 mg/kg, sorafenib 30 mg/kg daily, anti-PD-1 200 μg i.p., start ~350 mm^3) was “superior efficacy”. The tumor regression ([6]; treatment started at 100 mm^3, 30 mg/kg daily oral gavage) was “induced significant tumor regression in the majority of animals”, the “efficacy in advanced-stage setting versus sorafenib” value ([6]; treatment started at 300-400 mm^3, WNTinib 20 mg/kg, sorafenib 30 mg/kg) was “superior to the standard of care clinical compound (sorafenib)” and the “EZH2 T367 phosphorylation in tumors” value [6, 10] was “inhibition of EZH2 T367 phosphorylation”. For the same compound, the “WNT-target genes in tumors (qPCR)” value [6, 10] was “in vivo suppression of WNT-target genes”, the “viability of AKS CRC line” value ([7]; 72 hours post treatment) was “reduce the viability” and the “organoid morphology of AKS organoids” value ([7]; WNTinib 3 μM, 72 hrs) was “induce a reversal of organoid morphology”.
